Reference: US8235974B2, “Method for hair removal” (Ecole Polytechnique Federale de Lausanne (EPFL), priority 2001, dated 2012)

Columns and labels:
[1] = system: PpIX fluorescence in human forearm or leg skin areas (hair follicle vs epidermis); experiment: Macroscopic PpIX fluorescence imaging of skin after topical photosensitizer precursor; ratio r hair follicle/hairless epidermis; format: in vivo
Method: The photosensitizer precursors were formulated within standard excipients of the European Pharmacopoeia, namely unguentum leniens (UL) and unguentum hydrophilicum anionicum (UH); for some essays, the photosensitizer precursors were suspended either in pure glycerol (GLY) or in pure diethylene glycol monoethyl ether (DGME).
The formulations were administered topically on the forearm or the leg using the Tegaderm™ transparent dressing. This dressing enables the transport of water and oxygen according to the specifications of the manufacturer. This dressing was removed and the remaining formulation cleaned with pure ethanol just before the measurements performed at one single point in time. For the pharmacokinetic measurements, this dressing was removed after four hours. This removal of the Tegaderm™ during the remaining time course of the measurements induced negligible minimal alterations of the measurements due to the excellent transparency of this dressing at the wavelengths of interest.
A fluorescence imaging system illustrated by FIG. 9 was developed to assess the extent and level of PpIX production in “macroscopic” samples (parts of the human body such as: forearm, leg, back, etc.). As the goal is to assess the relative level of PpIX in the hair follicle of these samples, red light at 635 nm was chosen as PpIX fluorescence excitation wavelength. It is indeed well known that red light penetrates deeper in the cutaneous tissues than green and violet light, the later two wavelengths corresponding to larger PpIX absorption peaks (see the PpIX fluorescence excitation and emission spectra presented on the right side in FIG. 9).
As presented in the schematic diagram presented in FIG. 9, this fluorescence imaging system involves a modified 300 W D-light source 1 (Xe arc lamp from Storz, Tuttlingen, Germany) equipped with a red bandpass filter (635 nm, 20 nm FWHM; Chroma, USA). This fluorescence excitation light is coupled in a Storz 4 mm diameter light guide 2. The output of this light guide is imaged on the tissue sample 3 with a projection objective 4 (Nikon, Japan; AF Nikkor; 1:1.4 D/50 mm) to generate a homogenous spot of 2.5 cm in diameter with an irradiance of 2 mW/cm^2 at 635 nm. The distance between this projection objective 4 and the sample 3 is 25 cm. Therefore, the light beam illuminating the sample can be considered as parallel. The fluorescence is collected by another objective 5 (Fujinon, Japan; TV zoom lens; 1:1.2/12.5-75 mm; Type H6X12.5R-MD3) through a longpass filter 6 (Schott, Germany; RG665) and the image detected by a scientific CCD camera (752×582 pixels CF 8/1 Kappa, Gleichen, Germany) equipped 7 with an image intensifier (Proxifier BV 256-2FcZ-CH, Proxitronic, Bensheim, Germany). The images are captured by the 8-bits camera frame grabber and saved on the computer 8 with the “Kappa Imagebase-control” software. Image treatment is carried out using the IPLab imaging software. The spatial resolution of the complete setup has been measured with an USAF resolution target and the value we obtained in the sample plan is 3 lp/mm, the size of the image detected by the camera being 3×4 cm^2. A reference sample has been designed to enable a comparison of the relative fluorescence brightness between samples investigated at different times. This reference consists of a ruby disk (diameter: 12 mm; thickness: 1.02 mm; Type 8Sp3, Hans Stettler SA, Lyss, Switzerland) covered with a neutral density filter (T=2.27%) so that the signal obtained with this reference sample corresponds to the typical tissue fluorescence detected in our conditions.
The images were analyzed using the NIH image software. The method consisted in identifying the location of an area corresponding to: 1) one typical hair follicle and 2) epidermis presenting no skin appendages. The number of pixels involved in such an area was typically 100. […]

[2] = system: skin area; settings: applied 15 to 25 hours, pulsed red light, cited from earlier work
[3] = system: sheep; settings: light irradiation about 8 to 10 hours later, 600 to 700 nm; cited from earlier work
[4] = system: skin area (hairs, follicles, epidermis); experiment: Irradiation of treated skin areas at 635 nm: hair removal and skin reaction; format: in vivo, human; settings: pure, applied 195 minutes; irradiated 200 minutes later, 30 J/cm^2 at 65 mW/cm^2 (FIG. 7A)
Method: The irradiation step of the skin areas treated by means of the various photosensitizer precursor compositions described above was conducted as follows: The irradiation of the skin was performed at 635 nm with an argon ion (Spectra-Physics, model 2020) pumped dye laser (Spectra-Physics, model 375B). The light was coupled in a frontal FD1 light distributor from Medlight SA (Ecublens, Switzerland). This distributor generated a uniform 2 cm in diameter spot. The typical irradiances and light doses were 60 to 130 mW/cm^2 and 30 to 130 J/cm^2, respectively. The irradiance was checked before and after all treatments. The light power delivered by the light distributor was determined using a power meter from Spectra-Physics (Model 407A, Mountain view, Calif., USA).
Thereafter, the skin was cleaned as indicated above. 15 minutes later, the skin area was irradiated with a light dose of 127 J/cm^2 at an irradiance of 127 mW/cm^2.
A first area was submitted to light irradiation after a waiting time equal to 200 minutes with a light dose of 61 J/cm^2 at an irradiance of 42.4 mW/cm^2. […] A second area was submitted to light irradiation 30 minutes after the end of drug administration. The light dose was 130 J/cm^2 at an irradiance of 56.6 mW/cm^2.
Thereafter, the skin was cleaned and irradiated 200 minutes later with a light dose of 30 J/cm^2 at an irradiance of 65 mW/cm^2.

[5] = three hours administration, 20% in DGME
[6] = three hours administration, 20% in glycerol

Compound | ratio r (hair follicle/epidermis fluorescence) [1, 5] | ratio r (hair follicle/epidermis fluorescence) [1, 6] | ratio r (fluorescence brightness hair follicle area / hairless epidermis area) ([1]; three hours after administration, in unguentum hydrophilicum) | hair removal ([2]; treatment repeated about 4 to 8 times) | duration of sunburn like side effects after an irradiation [2] | side effects in treated skin areas of test animals [3] | wool growth [3] | ratio r (hair follicle/epidermis fluorescence) ([1]; pure, lower leg, 3 hours, normal skin temperature of 31° C.) | ratio r (hair follicle/epidermis fluorescence) ([1]; pure, lower leg, three hours at 41° C. (electric blanket)) | skin reaction one day after irradiation [4] | kinetics of the hair follicle/epidermis fluorescence ratio ([1]; 20% in Unguentum Leniens, one volunteer, 0 to 1380 minutes (FIG. 10))
Cl.NCC(=O)CCC(=O)O [ALA, 5-amino-levulinic acid hydrochloride] | 2.21 | 1.62 | 1.46 | effective | 2 to 20 days | edema, discoloration and crusting | significantly reduced |  |  |  | 
CCOCCOCCOC(=O)CCC(=O)CN [ALA-DGME, diethylene glycol monoethyl ether 5-amino-levulinate] | 3.24 | 2.51 |  |  |  |  |  | 3.47 | 4.72 | a clear reaction selectivity between the skin areas around follicles and the epidermis in bulk | 
COC(=O)CCC(=O)CN [m-ALA, methyl ester of ALA] |  |  |  |  |  |  |  |  |  |  | decreases rapidly during the first hours and tends to unity for longer times
